Experimental data as given in US5039665A, “Use of fructose-1,6-diphosphate for treating myocardial infarction” (priority 1990, dated 1991).

What was measured:
heart preparation = settings: infusion of Locke's solution plus sugar; cited from earlier work
[1] = test system: dogs with acute regional myocardial ischemia; assay: acute regional myocardial ischemia in dogs (coronary artery occlusion); type: in vivo, dog; settings: FIG. 3; ischemic and normally perfused myocardium
dog WBC = assay: carbohydrate metabolism of dog white blood cells in vitro; type: cell-based
Method: The tests were also conducted to investigate the effect of FDP on white blood cells (WBC) on metabolism in vitro. […] It was experimentally assessed whether FDP can stimulate the carbohydrate metabolism of these cells at rest. A similar phenomenon observed for normal human erythrocytes, sickle cells and dog erythrocytes. From healthy humans and dogs, the white blood cells were separated and incubated at 37° Celsius for various periods of time with FDP, glucose and normal saline. At the end of incubation, ATP and intermediates of the glycolytic pathway were assessed. […] The pyruvic acid concentration in dog WBC incubated with FDP was 10 times greater than those incubated in glucose while those for the human WBC, this difference was of much lesser degree (X2). The dihydroxyacetone (DHA) in the human and canine WBC was 5 to 10 times greater in the FDP incubated than in the glucose ones.

rabbit ileum = assay: force of contraction of isolated rabbit ileum; settings: added to perfusate
Description: (§1) To allow for a broader and more complete interpretation of the results, a small paragraph will be devoted to the ability of FDP to cross the cellular membranes.

[2] = FDP distribution after intracardiac administration in rat; type: in vivo; settings: 10 min after administration
Description: as §1

[3] = plasma lactic acid after intravenous FDP in dogs; type: in vivo, dog
Description: as §1

[4] = tissue ATP, lactate, FDP and trioses after IV FDP; type: in vivo; settings: IV administration
Description: as §1

acute lethality in dogs = settings: dog, in vivo; administered 500 mg/min in dogs; approximately
Description: From an energetic point of view the advantage of using FDP as the initial substrate is that the net yield of the anaerobic metabolism of one mole of glucose is 2 ATP, while if one mole of FDP is metabolized in the same conditions it will produce 4 ATP because there is no phosphorylation of glucose and fructose-6-phosphate, reactions which require utilization of ATP. On the other hand, while doubling the quantity of ATP produced, lactate production remains the same as though one mole of glucose had been metabolized. It is obvious that in order to obtain results in the direction of making usuable energy from FDP, it is necessary to administer a large quantity. (The LD50 of FDP when administered 500 mg/min in dogs is approximately 5.8-6 g/kg.)

[5] = test system: experimental animals and man; assay: antishock activity in experimental animals and in man; settings: in vivo
[6] = test system: dogs anesthetized with Surital; assay: analeptic effect of intra-carotid administration on Surital (thiamylal) anesthesia in dogs; type: in vivo, dog; settings: systemic administration
[7] = 5 g of FDP IV over 10 min, at one hour

Compound | amplitude and frequency of heart beats, lactic acid, pH and potassium during recovery (heart preparation) | ATP and CP content in the myocardium [1] | tissue lactic acid concentration [1] | effect on carbohydrate metabolism (dog WBC) | concentration dependence of ATP production (dog WBC; 5 to 50 mg/ml FDP, no AMP or ADP) | concentration dependence of ATP increase (dog WBC; AMP or ADP added) | pyruvic acid concentration, FDP versus glucose (dog WBC; dog WBC) [times] | force of contraction (rabbit ileum) | concentration of FDP in the liver versus plasma [2] | plasma lactic acid [3, 7] [mg %] | plasma lactic acid increase [3, 7] | plasma lactic acid ([3]; before FDP (baseline)) [mg %] | ATP, lactate, and FDP in tissues [4] | trioses in the Embden-Meyerhof pathway [4] | LD50 (acute lethality in dogs) [mg/kg] | antishock activity [5] | analeptic effect [6]
O=C[C@H](O)[C@@H](O)[C@H](O)[C@H](O)CO [glucose, reference compound] | no significant difference | – | – | – | – | – | – | – | – | – | – | – | – | – | – | – | –
O=C(COP(=O)(O)O)[C@@H](O)[C@H](O)[C@H](O)COP(=O)(O)O [FDP, fructose-1,6-diphosphate] | – | increase of ATP and CP in ischemic myocardium, but also in the normally perfused heart muscle | The same phenomenon was observed for the tissue lactic acid concentration | profound stimulating effect on the carbohydrate metabolism | independent of the concentration (from 5 to 50 mg/ml), but rather a function of the incubation time | the increase of ATP becomes a function of the FDP concentration | 10 | increases the force of contraction | five | 16.45±2.16 | 21/2 | 6.13±1.7 | increase of ATP, lactate, and FDP in all tissues that we have studied | increases in the trioses | 5800 to 6000 | profound antishock activity in experimental animals and in man | The same analeptic effect, but to a much lesser degree
